Data published in patent US20130014428A1, “METHODS OF MONITORING AND CONTROLLING THE WALNUT TWIG BEETLE, PITYOPHTHORUS JUGLANDIS” (The United States of America as Represented by the …, priority 2011, published 2013).

Legend:
[1] = tested on: WTB; test: Example 2 Field Test 1: X in combination with X-3 and X-2; type: in vivo, Pityophthorus juglandis; details: alone or in combination, at the release rates tested
Method: Field Bioassays of 3-methyl-2-buten-1-ol in combination with other compounds. The flight response of WTB to 3-methyl-2-buten-1-ol in combination with other compounds was also tested. […] Louis, Mo. […] The five treatments were replicated in three spatial blocks and the treatments were re-randomized among the five trap stations in a block each time the traps were emptied (nearly every day). [table] Statistical Analyses. Analysis of treatment effects for the pouch vs. bottle experiment was done by using a sign test. (See Zar, J. H. 2010. Biostatistical Analysis. 5th ed. Pearson Prentice Hall, Englewood Cliffs, N.J.) The other four experiments were analyzed for treatment effect by using Friedman's non-parametric analysis of variance. Id. In all experiments, males and females were analyzed separately. All treatments within experiments yielding a significant treatment effect were compared by using an a posteriori Nemenyi test with experimentwise α=0.05. Id. For all experiments, differences among proportions of female WTB responding to treatments were analyzed by comparing 95% confidence intervals determined with the Clopper-Pearson method. Id.

[2] = tested on: walnut twig beetle (WTB), Pityophthorus juglandis; test: Example 1 Field Test 1: flight response to X and related isomers, yellow sticky card traps; type: in vivo; details: Davis CA; for trap catches, female WTB / trap catches, male WTB: about three months in summer, N=21
Method: Field Bioassays of Semiochemicals. […] Contech Enterprises Inc., Delta, British Columbia, Canada) and attached to yellow sticky card traps ([…], OK). In addition, synthesized (+) and (-) enantiomers of trans-conophthorin were tested in 400 μl polyethylene Eppendorf microcentrifuge tubes. Four field studies were conducted (Table 2) that tested the flight responses to: 3-methyl-2-buten-l-ol and related isomers (Field Test 1); 3-methyl-2-buten-l-ol with and without racemic trans-conophthorin (Field Test 2); 3-methyl-2-buten-l-ol with and without the purified enantiomers of trans-conophthorin (Field Test 3); and 3-methyl-2-buten-l-ol with and without racemic chalcogran (Field Test 4). [table] Statistical Analysis. Field Tests 1-4 were each analyzed for treatment effect by using Friedman's non-parametric analysis of variance. (See Zar, J. H. 2010. Biostatistical Analysis, 5th Ed. Pearson Prentice Hall, New Jersey). Males and females were subjected to separate analyses. All treatments within experiments yielding a significant treatment effect were compared by using an a posteriori Nemenyi test (Zar 2010) with experimentwise α=0.05. Sex ratios of responding WTB were determined using Cochran's method for unbiased sampling (See Cochran, W. G. 1977. Sampling Techniques, 3rd ed. John Wiley, New York), with 95% confidence intervals calculated by using the Clopper-Pearson method. (See Zar, J. H. 2010. Biostatistical Analysis, 5th Ed. Pearson Prentice Hall, New Jersey).

[3] = tested on: walnut twig beetle (WTB), Pityophthorus juglandis; test: Example 1 Field Test 4: flight response to X with and without racemic chalcogran; type: in vivo
Method: (§1) Field Bioassays of Semiochemicals. To test the attractiveness of the various compounds of interest, some of the commercially available materials listed above were poured into 15 ml capped polyethylene bottles (Product #s A1-1050/002, A1-1055/002; Contech Enterprises Inc., Delta, British Columbia, Canada) and attached to yellow sticky card traps (Trécé, Adair, OK). In addition, synthesized (+) and (−) enantiomers of trans-conophthorin were tested in 400 μl polyethylene Eppendorf microcentrifuge tubes. Four field studies were conducted (Table 2) that tested the flight responses to: 3-methyl-2-buten-l-ol and related isomers (Field Test 1); 3-methyl-2-buten-l-ol with and without racemic trans-conophthorin (Field Test 2); 3-methyl-2-buten-l-ol with and without the purified enantiomers of trans-conophthorin (Field Test 3); and 3-methyl-2-buten-l-ol with and without racemic chalcogran (Field Test 4).
(§2) Statistical Analysis. Field Tests 1-4 were each analyzed for treatment effect by using Friedman's non-parametric analysis of variance. (See Zar, J. H. 2010. Biostatistical Analysis, 5th Ed. Pearson Prentice Hall, New Jersey). Males and females were subjected to separate analyses. All treatments within experiments yielding a significant treatment effect were compared by using an a posteriori Nemenyi test (Zar 2010) with experimentwise α=0.05. Sex ratios of responding WTB were determined using Cochran's method for unbiased sampling (See Cochran, W. G. 1977. Sampling Techniques, 3rd ed. John Wiley, New York), with 95% confidence intervals calculated by using the Clopper-Pearson method. (See Zar, J. H. 2010. Biostatistical Analysis, 5th Ed. Pearson Prentice Hall, New Jersey).

[4] = tested on: WTB; test: Example 2 Field Test 3: X and racemic trans-pityol; type: in vivo, Pityophthorus juglandis
Method: Finally, a flight bioassay of the effect of the compound racemic trans-“pityol” [2-(1-hydroxy-1-methylethyl)-5-methyltetrahydrofuran] was conducted in late summer/early fall at Wolfskill Experimental Orchards. Pityol is a component of the aggregation pheromone of conifer-infesting Pityophthorus species. The response of WTB to racemic trans-pityol (formulated in a polyvinylchloride plastic bubble cap release device, 40 mg load, 0.2 mg/d release rate at 20° C., product #300000272, Contech Enterprises) and pityol in combination with 3-methyl-2-buten-1-ol (release rate 15-80 mg/d, LDPE plastic pouch Contech) was tested (Table 3, Field Test 3). The four treatments were replicated in three spatial blocks and the treatments were re-randomized among the four trap stations in a block each time the traps were emptied (nearly every day).
Statistical Analyses. Analysis of treatment effects for the pouch vs. bottle experiment was done by using a sign test. (See Zar, J. H. 2010. Biostatistical Analysis. 5th ed. Pearson Prentice Hall, Englewood Cliffs, N.J.) The other four experiments were analyzed for treatment effect by using Friedman's non-parametric analysis of variance. Id. In all experiments, males and females were analyzed separately. All treatments within experiments yielding a significant treatment effect were compared by using an a posteriori Nemenyi test with experimentwise α=0.05. Id. For all experiments, differences among proportions of female WTB responding to treatments were analyzed by comparing 95% confidence intervals determined with the Clopper-Pearson method. Id.

[5] = tested on: P. juglandis; test: GC-EAD (electroantennal detection) of volatile extract; design: species or system Pityophthorus juglandis; details: extract of J. hindsii with male and female P. juglandis feeding 45 hr
Method: Gas Chromatography-Electroantennal Detection (GC-EAD). GC-EAD analysis was performed on the extract of walnut (Juglans hindsii) with male and female P. juglandis feeding for 45 hr (pentane extract (7)). The sample was analyzed with an HP5890 GC with the following conditions: DB-5 column 30 m×0.32, oven 50° C. for 1 min, temperature programmed at 20° C./min to a final temperature of 280° C.

[6] = tested on: walnut twig beetle (WTB), Pityophthorus juglandis; test: Example 1 Field Test 2: flight response to X with and without racemic conophthorin; type: in vivo; details: tested as a racemic mixture
Method: as §1, §2

[7] = tested on: walnut twig beetle (WTB), Pityophthorus juglandis; test: Example 1 Field Test 3: flight response to X with and without enantiomers of trans-conophthorin; type: in vivo; details: enantiomers of Y tested separately
Method: as §1, §2

[8] = yellow sticky card traps, about one month late summer, Davis CA, N=13
[9] = 4-unit Lindgren funnel traps, X 15-80 mg/d, pityol 0.2 mg/d, N=93

C=C(C)CCO [X-3, 3-methyl-3-buten-1-ol]
effect on flight response to 3-methyl-2-buten-1-ol [1]: did not significantly affect the flight response of WTB | proportion of females responding [2]: 0.33 | trap catches, female WTB [2]: 2 | trap catches, male WTB [2]: 4

CC(C)=CC=O [X-1, 3-methyl-2-butenal]
proportion of females responding [2]: 0.65 | trap catches, female WTB [2]: 20 | trap catches, male WTB [2]: 11

CCC1CCC2(CCCO2)O1 (stereo not shown) [Z, 2-ethyl-1,6,-dioxaspiro [4,4]nonane]
effect on flight response ([3]; tested as a racemic mixture): interruptive or repellent | proportion of females responding ([3]; yellow sticky card traps, Davis CA): 0.67 | trap catches, female WTB [3, 8]: ½ | trap catches, male WTB [3, 8]: ½

CC1CCC(C(C)(C)O)O1 (racemic) [pityol, 2-(1-hydroxy-1-methylethyl)-5-methyltetrahydrofuran]
proportion of females responding ([4]; 4-unit Lindgren funnel traps): 0.24 | trap catches, female WTB [4, 9]: 11 | trap catches, male WTB [4, 9]: 32 | effect on response to 3-methyl-2-buten-1-ol ([4]; at the release rates tested): did not significantly affect the response to 3-methyl-2-buten-1-ol

CC1CCCC2(CCCO2)O1 (racemic) [Y, 7-methyl-1,6-dioxaspiro[4,5]decane]
antennal activity by GC-EAD [5]: antenally active | effect on flight response [6]: interruptive or repellent

CC(C)CCO [X-2, 3-methyl-1-butanol]
effect on flight response to 3-methyl-2-buten-1-ol [1]: did not significantly affect the flight response of WTB | proportion of females responding [2]: 0.48 | trap catches, female WTB [2]: 21 | trap catches, male WTB [2]: 23

CC1CCCC2(CCCO2)O1 (single isomer, unassigned; (-)) [(−)-Y, (−)-trans-conophthorin]
effect on flight response [7]: behaviorally active component
